Source: ChEMBL document CHEMBL1201862, “PubChem BioAssay data set” (2004)
Calls of active or inactive are those of the source.

How the values were obtained:
[1] = reduction of Shn3 3'UTR firefly luciferase signal, dose response, Schnurri-3 inhibitor project, cell-based, Clone20 osteoblasts, cherry-pick, set 2 (AID 720490); type: functional;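 also: actives lower the luminescence signal as inhibitors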
[2] = control 3'UTR Renilla luciferase suppression, dose response, counter-screen for Shn3 inhibitor project, cell-based, Clone20-Shn3RL, cherry-picked (AID 624133); type: functional
[3] = HepG2 cell cytotoxicity, dose response, cytotoxicity control for Shn3 inhibitor project, CellTiter-Glo, cherry-picked (AID 624134); type: functional, cell-based
[4] = Shn3 3'UTR reporter inhibitors, dose response, cell-based, Clone20 osteoblasts, firefly luciferase, cherry-picked (AID 624132); type: functional;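 also: firefly luciferase luminescence from reporter carrying the Shn3 3'UTR in osteoblasts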
[5] = HepG2 cell cytotoxicity, dose response, cytotoxicity control, plate reader, dry powder samples (AID 1159569); type: functional, cell-based;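 also: inhibitor potency with signal falling toward the positive control level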
[6] = P. falciparum 3D7-ScDHODH growth inhibitors, dose response, SYBR Green, dry powder samples (AID 1159570); type: functional, cell-based;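 also: parasite growth measured after 72 hours of compound exposure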
[7] = P. falciparum Dd2 growth inhibitors, dose response, SYBR Green, dry powder samples (AID 1159566); type: functional, cell-based;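 also: potency for growth inhibition with lower SYBR green DNA signal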
[8] = P. falciparum Dd2 growth inhibitors, dose response, SYBR Green, dry powder samples, set 9 (AID 1159568); type: functional, cell-based
[9] = P. falciparum ATP4 D1247Y mutant growth inhibitors, dose response, NITD609-resistant line, SYBR Green, dry powder (AID 1159571); type: functional, cell-based;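 also: parasites synchronized at ring stage by sorbitol before testing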
[10] = P. falciparum Dd2 growth inhibitors, dose response, SYBR Green, cherry-picked samples (AID 1159567); type: functional, cell-based
[11] = microbe, parasite or virus in culture; type: functional; details: Mycobacterium tuberculosis
[12] = insulin promoter down-regulators in MIN6 cells, imaging, high-content screening, mouse beta cells (AID 1628); type: functional
[13] = HEK293T cytotoxicity, dose response, cytotoxicity control for miR-122 modulator project, cell-based, inhibitor set, cherry-pick, set 2 (AID 720697); type: functional
[14] = cytotoxicity in MIN6 insulinoma cells, dose response, cytotoxicity control, cell-based, mouse insulinoma (AID 2122); type: functional;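 also: confirmatory high-throughput counterscreen run to flag cytotoxic compounds; mouse MIN-6 beta cells carrying an insulin promoter eGFP reporter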
[15] = HepG2 cell cytotoxicity, dose response, cytotoxicity control, cherry-picked samples (AID 1159577); type: functional, cell-based
[16] = IGROV1 ovarian cancer cell cytotoxicity, dose response, PAX8 inhibitor project, plate reader, dry powder samples (AID 743043); type: functional, cell-based; details: IGROV-1
[17] = non-specific cell cytotoxicity, dose response, cytotoxicity control for PAX8 inhibitor project, plate reader, dry powder samples (AID 743021); type: functional, cell-based
[18] = cytotoxicity in OVCAR8 ovarian cancer cells, dose response, PAX8 project, cell-based, plate reader, dry powder samples (AID 743197); type: functional; details: OVCAR-8
[19] = NIH:OVCAR-3 ovarian cancer cell cytotoxicity, dose response, PAX8 inhibitor project, plate reader, dry powder samples (AID 743044); type: functional, cell-based
[20] = A2780 ovarian cancer cell cytotoxicity, dose response, cytotoxicity control, plate reader, dry powder samples (AID 743046); type: functional, cell-based
Paired box protein Pax-8 = Paired box protein Pax-8 (Homo sapiens, UniProt Q06710); assay: inhibitors of PAX8-driven TPO luciferase reporter, dose response, RMG-I cells, cherry-pick (AID 687027); type: functional, cell-based;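 also: luciferase reporter driven by Pax8 target thyroperoxidase promoter measured by SteadyGlo luminescence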
Paired box protein Pax-8, sequence (Q06710 whole entry): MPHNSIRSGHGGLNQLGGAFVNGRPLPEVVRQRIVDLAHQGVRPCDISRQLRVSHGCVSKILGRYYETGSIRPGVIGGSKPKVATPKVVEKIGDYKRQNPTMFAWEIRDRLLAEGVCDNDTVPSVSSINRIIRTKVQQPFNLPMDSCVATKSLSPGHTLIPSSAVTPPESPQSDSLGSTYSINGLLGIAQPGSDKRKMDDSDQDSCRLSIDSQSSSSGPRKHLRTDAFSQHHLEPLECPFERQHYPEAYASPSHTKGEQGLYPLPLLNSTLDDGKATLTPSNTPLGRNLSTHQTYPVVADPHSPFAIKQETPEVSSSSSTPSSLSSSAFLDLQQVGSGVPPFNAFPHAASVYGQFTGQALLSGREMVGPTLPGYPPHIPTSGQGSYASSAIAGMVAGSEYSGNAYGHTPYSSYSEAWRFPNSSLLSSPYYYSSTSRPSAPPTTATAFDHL

[21] = IOSE-T80 ovarian epithelial cell cytotoxicity, dose response, cytotoxicity control for PAX8 inhibitor project, plate reader, dry powder samples (AID 743045); type: functional, cell-based
[22] = HEK293T cell cytotoxicity, dose response, cytotoxicity control, CellTiter-Glo luminescence, cherry-picked samples, set 4 (AID 743441); type: functional, cell-based; details: HEK293
Mu-type opioid receptor = Mu-type opioid receptor (Homo sapiens, UniProt P35372); assay: Late-stage results from the probe development effort to identify antagonists of OPRK1: luminescence-based cell-based dose response OPRM1 counterscreen.; type: functional
Mu-type opioid receptor, sequence (P35372 whole entry): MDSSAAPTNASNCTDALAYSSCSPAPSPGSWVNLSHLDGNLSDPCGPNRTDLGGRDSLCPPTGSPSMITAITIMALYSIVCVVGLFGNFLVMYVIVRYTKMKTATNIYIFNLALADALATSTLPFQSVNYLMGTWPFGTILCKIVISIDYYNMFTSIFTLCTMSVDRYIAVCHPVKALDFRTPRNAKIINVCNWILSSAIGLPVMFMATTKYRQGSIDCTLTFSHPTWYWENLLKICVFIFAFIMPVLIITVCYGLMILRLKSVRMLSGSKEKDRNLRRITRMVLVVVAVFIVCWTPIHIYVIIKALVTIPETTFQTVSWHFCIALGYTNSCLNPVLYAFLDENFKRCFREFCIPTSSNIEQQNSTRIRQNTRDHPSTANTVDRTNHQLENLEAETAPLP

[23] = molecular target: Delta-type opioid receptor (Homo sapiens, UniProt P41143); assay: Late-stage results from the probe development effort to identify antagonists of OPRK1: fluorescence-based cell-based dose response OPRD1 counterscreen.; type: functional
Delta-type opioid receptor, sequence (P41143 whole entry): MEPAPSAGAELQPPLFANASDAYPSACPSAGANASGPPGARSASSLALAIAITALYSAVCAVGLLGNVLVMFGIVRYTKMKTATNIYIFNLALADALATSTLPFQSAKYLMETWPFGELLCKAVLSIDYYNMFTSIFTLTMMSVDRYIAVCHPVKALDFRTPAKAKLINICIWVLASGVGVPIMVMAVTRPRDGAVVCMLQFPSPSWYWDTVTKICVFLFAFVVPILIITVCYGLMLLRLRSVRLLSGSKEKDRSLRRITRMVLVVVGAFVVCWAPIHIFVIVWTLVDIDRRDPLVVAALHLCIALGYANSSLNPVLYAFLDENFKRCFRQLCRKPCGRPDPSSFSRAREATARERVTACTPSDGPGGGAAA

[24] = molecular target: Metabotropic glutamate receptor 5 (Rattus norvegicus, UniProt P31424); assay: Identification of a glycine sulfonamide based non-MPEP site positive allosteric potentiator (PAM) of mGlu5 (calcium_assay).; type: functional
Metabotropic glutamate receptor 5, sequence (P31424 whole entry): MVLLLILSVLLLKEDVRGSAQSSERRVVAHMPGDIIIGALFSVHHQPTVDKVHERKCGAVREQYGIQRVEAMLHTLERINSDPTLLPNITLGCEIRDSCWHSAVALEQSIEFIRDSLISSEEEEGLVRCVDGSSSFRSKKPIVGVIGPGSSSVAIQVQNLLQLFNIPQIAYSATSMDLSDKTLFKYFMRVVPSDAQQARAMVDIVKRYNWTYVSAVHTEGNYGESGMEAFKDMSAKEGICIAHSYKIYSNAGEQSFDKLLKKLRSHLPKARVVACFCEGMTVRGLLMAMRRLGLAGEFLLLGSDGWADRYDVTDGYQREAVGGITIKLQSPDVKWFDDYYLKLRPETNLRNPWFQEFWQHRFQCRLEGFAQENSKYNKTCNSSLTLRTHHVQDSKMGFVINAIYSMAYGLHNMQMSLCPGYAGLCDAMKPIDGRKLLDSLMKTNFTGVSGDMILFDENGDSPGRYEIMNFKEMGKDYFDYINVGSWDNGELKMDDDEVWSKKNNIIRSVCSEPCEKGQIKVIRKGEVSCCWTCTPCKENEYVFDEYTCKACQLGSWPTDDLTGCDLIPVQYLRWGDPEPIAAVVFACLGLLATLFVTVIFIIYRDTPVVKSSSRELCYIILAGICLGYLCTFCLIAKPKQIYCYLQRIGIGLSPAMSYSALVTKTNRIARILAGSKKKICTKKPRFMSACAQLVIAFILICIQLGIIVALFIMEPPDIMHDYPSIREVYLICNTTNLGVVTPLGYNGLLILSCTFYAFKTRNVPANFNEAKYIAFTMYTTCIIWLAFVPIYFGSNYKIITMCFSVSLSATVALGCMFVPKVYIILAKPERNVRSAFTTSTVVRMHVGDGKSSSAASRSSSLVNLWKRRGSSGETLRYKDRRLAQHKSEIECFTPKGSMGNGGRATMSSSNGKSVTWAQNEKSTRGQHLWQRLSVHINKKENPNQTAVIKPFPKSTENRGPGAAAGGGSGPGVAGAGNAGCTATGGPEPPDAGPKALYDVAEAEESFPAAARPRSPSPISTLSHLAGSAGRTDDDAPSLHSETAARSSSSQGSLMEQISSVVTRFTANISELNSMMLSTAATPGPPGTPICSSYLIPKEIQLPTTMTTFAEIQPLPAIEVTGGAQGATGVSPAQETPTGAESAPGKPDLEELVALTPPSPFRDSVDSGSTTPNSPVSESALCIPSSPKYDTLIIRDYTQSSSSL

Aminopeptidase N = molecular target: T1, Aminopeptidase N (Plasmodium falciparum FcB1/Columbia, UniProt O96935); assay: P. falciparum M1AAP inhibitors, biochemical, fluorogenic H-Leu-NHMec substrate, 1536-well (AID 1445); design: species or system Plasmodium falciparum 3D7, 3D7
T1 sequence (O96935 whole entry): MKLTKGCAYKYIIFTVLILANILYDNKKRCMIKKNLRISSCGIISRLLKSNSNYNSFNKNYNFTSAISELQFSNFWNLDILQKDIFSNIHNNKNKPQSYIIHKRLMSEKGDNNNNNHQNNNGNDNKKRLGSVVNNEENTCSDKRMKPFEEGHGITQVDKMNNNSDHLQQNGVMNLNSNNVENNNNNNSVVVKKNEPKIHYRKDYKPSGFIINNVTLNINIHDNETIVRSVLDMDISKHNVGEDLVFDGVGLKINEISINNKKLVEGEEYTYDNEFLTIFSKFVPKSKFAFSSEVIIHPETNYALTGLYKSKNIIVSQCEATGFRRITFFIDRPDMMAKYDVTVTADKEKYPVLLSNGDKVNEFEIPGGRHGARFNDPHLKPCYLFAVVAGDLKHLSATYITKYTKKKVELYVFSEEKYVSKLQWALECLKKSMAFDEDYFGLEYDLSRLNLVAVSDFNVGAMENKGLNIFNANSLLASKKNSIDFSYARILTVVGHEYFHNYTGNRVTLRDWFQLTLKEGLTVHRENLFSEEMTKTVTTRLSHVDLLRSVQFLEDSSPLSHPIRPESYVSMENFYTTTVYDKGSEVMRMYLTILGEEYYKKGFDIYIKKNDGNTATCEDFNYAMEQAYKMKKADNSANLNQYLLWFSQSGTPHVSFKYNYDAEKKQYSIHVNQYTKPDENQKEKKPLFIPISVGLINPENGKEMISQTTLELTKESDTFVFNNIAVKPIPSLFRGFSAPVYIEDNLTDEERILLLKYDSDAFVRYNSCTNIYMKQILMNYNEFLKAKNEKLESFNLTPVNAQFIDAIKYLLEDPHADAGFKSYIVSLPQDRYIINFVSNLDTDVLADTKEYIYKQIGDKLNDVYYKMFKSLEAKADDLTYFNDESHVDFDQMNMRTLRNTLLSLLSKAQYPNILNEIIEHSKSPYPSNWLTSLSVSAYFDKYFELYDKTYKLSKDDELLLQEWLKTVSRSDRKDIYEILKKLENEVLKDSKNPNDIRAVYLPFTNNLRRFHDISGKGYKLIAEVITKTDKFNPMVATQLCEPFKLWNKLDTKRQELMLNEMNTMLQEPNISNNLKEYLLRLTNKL

[25] = molecular target: Endoplasmic reticulum aminopeptidase 1 (Homo sapiens, UniProt Q9NZ08); assay: ERAP1 aminopeptidase inhibitors, dose response, biochemical, cherry-pick, set 2, plate reader (AID 743314)
Endoplasmic reticulum aminopeptidase 1, sequence (Q9NZ08 whole entry): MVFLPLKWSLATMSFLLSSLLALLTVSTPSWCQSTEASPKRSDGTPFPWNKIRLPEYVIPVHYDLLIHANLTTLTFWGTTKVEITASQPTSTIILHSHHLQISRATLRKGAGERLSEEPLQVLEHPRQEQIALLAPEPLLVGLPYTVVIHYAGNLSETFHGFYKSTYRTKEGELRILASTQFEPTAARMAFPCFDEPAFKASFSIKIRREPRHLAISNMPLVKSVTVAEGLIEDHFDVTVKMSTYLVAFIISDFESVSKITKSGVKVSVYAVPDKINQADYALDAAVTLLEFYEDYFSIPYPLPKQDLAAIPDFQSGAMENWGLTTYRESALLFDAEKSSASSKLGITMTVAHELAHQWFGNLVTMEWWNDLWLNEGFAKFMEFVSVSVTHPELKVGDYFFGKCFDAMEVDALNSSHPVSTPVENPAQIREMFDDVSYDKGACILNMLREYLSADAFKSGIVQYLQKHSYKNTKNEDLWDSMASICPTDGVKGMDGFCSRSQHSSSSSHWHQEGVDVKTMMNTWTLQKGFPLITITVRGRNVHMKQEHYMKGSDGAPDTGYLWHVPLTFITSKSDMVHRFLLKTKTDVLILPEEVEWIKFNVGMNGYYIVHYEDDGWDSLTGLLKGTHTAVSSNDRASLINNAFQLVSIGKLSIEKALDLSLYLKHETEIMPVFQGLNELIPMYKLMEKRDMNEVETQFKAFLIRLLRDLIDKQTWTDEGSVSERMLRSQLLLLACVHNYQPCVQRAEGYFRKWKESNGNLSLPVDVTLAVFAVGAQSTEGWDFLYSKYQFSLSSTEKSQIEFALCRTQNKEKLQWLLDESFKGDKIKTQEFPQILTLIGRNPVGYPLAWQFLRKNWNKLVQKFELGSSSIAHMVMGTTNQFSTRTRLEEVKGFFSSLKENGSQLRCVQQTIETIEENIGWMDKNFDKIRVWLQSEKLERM

[26] = miR-122 activators in hepatoma reporter cells, dose response, cell-based, Huh7 psiCHECK-miR122, Renilla luciferase, cherry-picked (AID 651956); type: functional;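 also: huh7 hepatoma cells stably carrying a psiCHECK-2 miR-122 sensor plasmid; renilla luciferase signal reporting endogenous miR-122 activity after 48 h compound exposure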
[27] = HEK293T cytotoxicity, dose response, cytotoxicity control for miR-122 modulator project, cell-based, activator set, cherry-pick (AID 720690); type: functional;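 also: HEK293T human cells scored for general mammalian cytotoxicity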
INS1 = assay: beta cell apoptosis inhibitors, cytokine rescue, dose response, luminescence, retest (AID 449756); type: functional, cell-based; details: Rattus norvegicus;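 also: cell death triggered by IL-1 beta plus TNF-alpha plus IFN-gamma mixture; protective hits raise ATP signal compared with cytokine alone wells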
[28] = HepG2 cell cytotoxicity, dose response, cytotoxicity control, CellTiter-Glo luminescence, cherry-pick, set 2 (AID 743395); type: functional
HeLa = assay: HeLa cell cytotoxicity, dose response, cytotoxicity control, ATP luminescence, cherry-pick samples (AID 687004); type: functional, cell-based; details: Homo sapiens
[29] = PAX5 activity inhibitors, dose response, selectivity assay for PAX8 inhibitor project, cell-based, plate reader, dry powder samples (AID 743047); type: functional;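 also: HEK293 cells carrying a Pax5 driven CD19 promoter luciferase reporter; potency of inhibitors that lower reporter luminescence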
[30] = cytotoxicity in COV434 cells, dose response, cytotoxicity control for PAX8 inhibitor project, cell-based, plate reader, dry powder, SA7 (AID 743145); type: functional
[31] = cytotoxicity in COV362 ovarian cancer cells, dose response, cytotoxicity control for PAX8 inhibitor project, cell-based, plate reader, dry powder, SA12 (AID 743144); type: functional
[32] = cytotoxicity in OV-90 ovarian cancer cells, dose response, PAX8 inhibitor project, cell-based, plate reader, dry powder, SA8 (AID 743149); type: functional
[33] = PAX2 cell-based inhibition, dose response, selectivity assay for PAX8 inhibitor project, plate reader, dry powder samples (AID 743048); type: functional;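 also: HEK293 cells carrying a WT1 promoter luciferase reporter driven by expressed Pax2; potency is for inhibition of Pax2 driven reporter signal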
[34] = cytotoxicity dependent on PAX8, dose response, cell-based, plate reader, dry powder (AID 743049); type: functional

Which AC50 [1] does the source give for `CCOC(=O)N1CCN(c2ccc(S(=O)(=O)N(Cc3ccccc3)Cc3ccccc3)cn2)CC1` here?
Its AC50 is 2.09 µM (active).

What about the AC50 [2] of the same molecule?
The AC50 was 34.3 µM (active).

What about the AC50 [3] of the same molecule?
The AC50 was 45 µM (active).

And the AC50 [4]?
Its AC50 is 2.59 µM (active).

What does the source list for `COc1ccc(C#Cc2ccc3c(c2)O[C@@H](CN(C)C(=O)Nc2cccc(OC)c2)[C@@H](C)CN([C@@H](C)CO)S3(=O)=O)cc1`?
AC50 [5]: > 100 µM (inactive); AC50 [6]: 603 nM (active); AC50 [7]: 405 nM (active); AC50 [8]: 399 nM (active); AC50 [9]: 556 nM (active); AC50 [10]: 1.09 µM (active)

Which CC50 [11] does the source give for `COc1ccc(-c2oc3ncnc(NCCCN4CCOCC4)c3c2-c2ccc(OC)cc2)cc1` here?
Its CC50 is 24.8 µM (active).

And the IC50 [12]?
The IC50 was 898 nM (active).

And the AC50 [13]?
The AC50 was 1.51 µM (active).

And the IC50 [14]?
Its IC50 is > 16 µM (inactive).

Which AC50 [15] does the source give for `COc1ccc(C#Cc2ccc([C@@H]3[C@H](CO)N4CCCCN(C(=O)Nc5cccc(F)c5)C[C@@H]34)cc2)cc1` here?
The AC50 was 6.45 µM (active).

What about the AC50 [16] of the same molecule?
The AC50 was 10.5 µM (active).

And the AC50 [17]?
Its AC50 is 40.6 µM (active).

What about the AC50 [18] of the same molecule?
Its AC50 is 18.1 µM (active).

And the AC50 [19]?
Its AC50 is 10 µM (active).

And the AC50 [20]?
The AC50 was 15.3 µM (active).

And the AC50 (Paired box protein Pax-8)?
The AC50 was 9.89 µM (active).

And the AC50 [10]?
Its AC50 is 1.43 µM (active).

What about the AC50 [21] of the same molecule?
Its AC50 is 16.3 µM (active).

Which AC50 [22] does the source give for `Cc1c(C(=O)O)sc2nc(CSc3ncc(C(F)(F)F)cc3Cl)nc(O)c12` here?
Its AC50 is > 52 µM (inactive).

With `COC(=O)c1cc(Br)cnc1N1CCC(NC2CCC(C)CC2)CC1` (configuration not stated) as the molecule, how does the IC50 (Mu-type opioid receptor) read?
Its IC50 is 8.6 µM (active).

And the IC50 [23]?
The IC50 was 18 µM (inactive).

Which EC50 [24] does the source give for `CS(=O)(=O)N1c2ccccc2CCC1C(=O)Nc1ccccn1` (configuration not stated) here?
Its EC50 is 944 nM.

Which results are given for `CCc1c(C)c2cc(Cl)c(O)c(CN(CC)CC)c2oc1=O`?
IC50 (Aminopeptidase N): 34.6 µM (active); AC50 [25]: 6.85 µM (active)

What does the source list for `Cc1cc(C(=O)N/N=C/c2cc(Br)ccc2OC(=O)c2ccccc2)[nH]n1`?
AC50 [26]: 43.1 µM (active); AC50 [27]: 16.6 µM (active); AC50 (INS1): 1.91 µM (active)

What does the source list for `CCOC(=O)c1oc2ccc(S(=O)(=O)n3nc(-c4ccccc4)cc3N)cc2c1C`?
IC50 [12]: 1080 nM (active); IC50 [14]: 1.01 µM (active); AC50 [2]: 7.82 µM (active); AC50 [3]: 56.8 µM (active); AC50 [4]: 0.854 µM (active); AbsAC35_uM [28]: 31.08 µM

For `COc1cccc(-c2cn(CC[C@@H]3CC[C@@H](NC(C)=O)[C@H](CO)O3)nn2)c1`, which AC50 (HeLa) is on record?
The AC50 was > 52 µM (inactive).

Which AC50 [29] does the source give for `CCCC#Cc1ccc([C@@H]2[C@@H](C#N)N(C(=O)C3CCCCC3)[C@H]2CO)cc1` here?
Its AC50 is 18.3 µM (active).

And the AC50 [30]?
Its AC50 is 34.5 µM (active).

What about the AC50 [18] of the same molecule?
The AC50 was 51 µM (active).

What about the AC50 [31] of the same molecule?
The AC50 was 41.8 µM (active).

And the AC50 (Paired box protein Pax-8)?
The AC50 was 6.02 µM (active).

What about the AC50 [32] of the same molecule?
Its AC50 is 36 µM (active).

And the AC50 [33]?
Its AC50 is 14.1 µM (active).

And the AC50 [34]?
Its AC50 is 31 µM (active).
